According to PubChem BioAssay (NCI):
“And” between values parts separate entries of the source, which are not always exact repeats. Equal values may be shown once.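 Step 1: Grow cells in 96-well plates. Step 2: Expose to compound for 48 hours at 5 concentrations. Step 3: Interpolate endpoints linearly; if unreached, use highest concentration. Abbreviation: GI50, concentration required for 50% inhibition of growth. TGI marks complete inhibition of growth.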

Columns and labels:
Assay in all cases: inhibition of tumour cell growth, NCI panel, 48 h
[1] = tested on: SN12C renal
[2] = tested on: OVCAR-5 ovarian
[3] = tested on: SF-539 CNS
[4] = tested on: M14 melanoma
[5] = tested on: CCRF-CEM leukemia
[6] = tested on: OVCAR-8 ovarian
[7] = tested on: HOP-62 NSCLC
[8] = tested on: SNB-19 CNS
[9] = tested on: K-562 leukemia
[10] = tested on: MDA-N

CC(C)(Oc1ccc(Cl)cc1)C(=O)N(C(=O)N1CCC(c2ccccc2)CC1)c1ccccc1
TGI [1]: > 100 µM
TGI [2]: > 100 µM
TGI [3]: > 100 µM
TGI [4]: > 100 µM
TGI [5]: > 100 µM
TGI [6]: > 100 µM
TGI [7]: > 100 µM
TGI [8]: > 100 µM
TGI [9]: > 100 µM

CN(C)c1nc2oc(-c3ccccc3)c(-c3ccccc3)c2c2nnnn12
TGI [1]: > 100 µM
TGI [2]: > 100 µM
TGI [3]: > 100 µM
TGI [4]: > 100 µM
TGI [5]: > 100 µM
TGI [6]: > 100 µM
TGI [8]: > 100 µM
TGI [9]: > 100 µM

COc1ccc(C2=NN(c3ccccc3)C[N+](c3ccc(OC)cc3)=N2)cc1
TGI [1]: > 100 µM
TGI [2]: 70 µM
TGI [5]: 83.4 µM
TGI [6]: > 100 µM
TGI [7]: > 100 µM
TGI [8]: 92.1 µM
TGI [9]: 63.1 µM

Cc1cc(N2CCCC2)nc(N(CCNc2ccnc3cc(Cl)ccc23)Cc2ccco2)n1
GI50 [1]: 3.88 µM
TGI [1]: > 100 µM
GI50 [2]: 4.93 µM
TGI [2]: > 100 µM
GI50 [3]: 3.27 µM
TGI [3]: 10.4 µM
GI50 [4]: 2.93 µM
TGI [4]: > 100 µM
GI50 [5]: 2.85 µM
TGI [5]: > 100 µM
GI50 [6]: 4.35 µM
TGI [6]: > 100 µM
GI50 [7]: 5.64 µM
TGI [7]: 30 µM
GI50 [8]: 5.67 µM
TGI [8]: 70.2 µM
GI50 [9]: 2.26 µM
TGI [9]: > 100 µM

COC(=O)c1cc2ccc(OC(C)=O)c(OC(C)=O)c2cn1
GI50 [1]: 6.91 µM
TGI [1]: 21.3 µM
TGI [2]: 34.2 µM
TGI [3]: 33.8 µM
TGI [4]: 34.3 µM
TGI [5]: 5.57 µM
GI50 [10]: 2.03 µM
TGI [10]: 2.93 µM and 3.68 µM
GI50 [6]: 10.1 µM
TGI [6]: 22.2 µM
TGI [7]: 42.7 µM
GI50 [9]: 1.86 µM
TGI [9]: 7.32 µM and 3.75 µM

C/C=C(/C)C(=O)O[C@H](C[C@@H](C)[C@H]1CC(c2ccoc2)OC1=O)[C@@]1(C)C(=O)CCC2O[C@]21C (some centres not stated)
TGI [2]: > 100 µM
TGI [3]: > 100 µM
TGI [4]: > 100 µM
TGI [5]: > 100 µM
TGI [10]: > 100 µM
TGI [6]: > 100 µM
TGI [8]: > 100 µM
TGI [9]: > 100 µM

COc1ccc(C(=O)Cc2ccc(Br)cc2)cc1OC
TGI [1]: > 100 µM
TGI [2]: > 100 µM
TGI [3]: > 100 µM
TGI [4]: > 100 µM
TGI [5]: > 100 µM
TGI [6]: > 100 µM
TGI [7]: > 100 µM
TGI [8]: > 100 µM
TGI [9]: > 100 µM

CC1(C)[C@H]2CC[C@]1(C)[C@H](OC(=O)NNC(=O)O[C@@H]1C[C@@H]3CC[C@@]1(C)C3(C)C)C2
TGI [1]: 24.7 µM
TGI [2]: 34.1 µM
TGI [3]: 29.9 µM
TGI [4]: 35.6 µM
TGI [5]: 76.6 µM
TGI [10]: 24.8 µM
TGI [7]: 29.5 µM
TGI [8]: 39.1 µM
TGI [9]: 17 µM

C/C(Nc1ccc(F)cc1)=C1/CCOC1=O
TGI [1]: > 100 µM
TGI [3]: > 100 µM
TGI [5]: > 100 µM
TGI [6]: > 100 µM
TGI [7]: > 100 µM
TGI [8]: > 100 µM
TGI [9]: > 100 µM

O=C1c2cc3c(cc2CC12Cc1ccc4c(c1C2=O)CCCC4)CCCC3 (configuration not stated)
TGI [2]: > 100 µM
TGI [3]: > 100 µM
TGI [4]: > 100 µM
TGI [5]: > 100 µM
TGI [10]: > 100 µM
TGI [6]: > 100 µM
TGI [7]: > 100 µM
TGI [8]: > 100 µM
TGI [9]: > 100 µM

CN(C(=O)c1ccco1)C(=S)N1CCN(c2ccccc2)CC1
TGI [1]: > 100 µM
TGI [2]: > 100 µM
TGI [3]: > 100 µM
TGI [4]: > 100 µM
TGI [5]: > 100 µM
TGI [6]: > 100 µM
TGI [7]: > 100 µM
TGI [8]: > 100 µM
TGI [9]: > 100 µM

CCOC(=O)c1cc2c(C(=O)c3ccc([N+](=O)[O-])cc3)c(C(C)=O)ccc2[nH]1
TGI [1]: > 100 µM
TGI [2]: > 100 µM
TGI [3]: > 100 µM
TGI [4]: > 100 µM
TGI [5]: > 100 µM
TGI [10]: > 100 µM
TGI [7]: 18.4 µM
TGI [8]: 87.9 µM
TGI [9]: > 100 µM

CC(=O)Nc1ccc(OC2=CCN(C)CC2)cc1
TGI [1]: > 100 µM
TGI [2]: > 100 µM
TGI [4]: > 100 µM
TGI [5]: > 100 µM
TGI [10]: > 100 µM
TGI [6]: > 100 µM
TGI [7]: > 100 µM
TGI [8]: > 100 µM
TGI [9]: > 100 µM

COC(=O)[C@H]1CO[C@H]2C/C(C)=C/CC/C(C)=C/CC[C@@]3(C)O[C@@H]3C[C@H]21
TGI [1]: 24.3 µM
TGI [2]: > 50 µM
TGI [3]: > 50 µM
TGI [4]: > 50 µM
TGI [5]: 28.1 µM
TGI [6]: > 50 µM
TGI [7]: > 50 µM
TGI [8]: > 50 µM
TGI [9]: 16.1 µM

COc1ccc(-c2cc(-c3ccc(Nc4ccnc5cc(Cl)ccc45)cc3)[nH]c(=O)c2C#N)c2ccccc12
TGI [1]: 46.9 µM
TGI [2]: > 100 µM
TGI [4]: 4.93 µM
TGI [5]: > 100 µM
TGI [10]: 6.02 µM
TGI [6]: 5.41 µM
TGI [7]: > 53.9 µM
TGI [8]: > 23.4 µM
TGI [9]: 6.35 µM

CCCCCC(C)SC1(C(=O)OC)CC(OC(C)=O)C(NC(C)=O)C([C@H](OC(C)=O)[C@@H](COC(C)=O)OC(C)=O)O1 (some centres not stated)
TGI [1]: > 100 µM
TGI [2]: > 100 µM
TGI [3]: 70.1 µM
TGI [4]: > 100 µM
TGI [10]: > 100 µM
TGI [6]: > 100 µM
TGI [7]: > 100 µM
TGI [8]: > 100 µM
TGI [9]: > 100 µM

Oc1c([Si](c2ccccc2)(c2ccccc2)c2ccccc2)cc2ccccc2c1-c1c(O)c([Si](c2ccccc2)(c2ccccc2)c2ccccc2)cc2ccccc12
TGI [2]: > 100 µM
TGI [3]: > 100 µM
TGI [4]: > 100 µM
TGI [5]: > 100 µM
TGI [10]: > 100 µM
TGI [6]: > 100 µM
TGI [7]: > 100 µM
TGI [8]: > 100 µM
TGI [9]: > 100 µM

CSc1n[nH]c(N)c1C(=O)Nc1ccc(C)cc1
TGI [1]: > 100 µM
TGI [2]: > 100 µM
TGI [3]: > 100 µM
TGI [4]: > 100 µM
TGI [5]: > 100 µM
TGI [10]: > 100 µM
TGI [7]: > 100 µM
TGI [8]: > 100 µM
TGI [9]: > 100 µM

C[C@@H]1CC[C@H]2C(C(O)CCCCC(O)C3=C(C(F)(F)F)O[C@@H]4O[C@@]5(C)CC[C@H]6[C@H](C)CC[C@@H]3[C@@]46OO5)=C(C(F)(F)F)O[C@@H]3O[C@@]4(C)CC[C@@H]1[C@]32OO4 (some centres not stated)
GI50 [1]: 21 µM
TGI [1]: > 100 µM
GI50 [3]: 90.7 µM
TGI [3]: > 100 µM
GI50 [5]: 14.3 µM
TGI [5]: > 100 µM
GI50 [6]: 11.3 µM
TGI [6]: > 100 µM
GI50 [7]: 36.9 µM
TGI [7]: > 100 µM
GI50 [8]: > 100 µM
TGI [8]: > 100 µM
GI50 [9]: 16.2 µM
TGI [9]: > 100 µM

COc1ccc(C(=O)/C=C/c2c(Cl)c3c(c(OC)c2Cl)OCC(=O)N3)cc1
GI50 [2]: 3.86 µM
TGI [2]: > 100 µM
GI50 [3]: 2.21 µM
TGI [3]: 4.85 µM
GI50 [4]: 2.03 µM
TGI [4]: 5.12 µM
GI50 [5]: 1.87 µM
TGI [5]: 8.44 µM
GI50 [6]: 2.85 µM
TGI [6]: 16.3 µM
GI50 [7]: 2.8 µM
TGI [7]: 6.96 µM
GI50 [9]: 1.85 µM
TGI [9]: 7.73 µM
